Legend:
CYP2D6 = target: T1, CYP2D6 (Homo sapiens, UniProt P10635); assay: Time-dependent CYP inhibition in HLM, CYP2D6; format: in vitro ADME; settings: 10 μM, 30 min pre-incubation with NADPH
T1 construct: tissue Life Technologies (Durham, NC, USA); host or cells: human liver microsomes
Description: The procedure of time-dependent CYP inhibition was similar to that used for CYP reversible inhibition, as mentioned above, except that a pre-incubation step was added. […] Another appropriate volume of the NADPH-regenerating system and probe substrate were added to initiate the CYP isoform enzyme activity test step. For this step, the incubation period was 10 min, except for CYP2B6, CYP2C8, and CYP3A4/5 (probe substrate: midazolam), which was 3 min to make sure the reaction was under initial linear rates. After incubation for the designated time periods at 37°C, the ice-cold acetonitrile containing IS was added to quench the reaction. […] (Ainactivator/[…] represents the enzyme activity remaining due to the inhibition by the diluted inactivator in the enzyme activity test step, and (Ainactivator/[…] represents the remaining enzyme activity due to pre-incubation loss plus inhibition by the diluted inactivator in the enzyme activity test step.

CYP2C8 = assay: CYP induction in human hepatocytes, CYP2C8 enzyme activity
Description: (§1) […] […] […] Enzyme activity for each CYP isoform was reported as a fold change over vehicle control and the percent of positive control (detailed calculation in Supplementary 1.1). Hepatocytes were harvested with a lysis buffer from RNeasy 96 Kit (Qiagen Inc., Germantown, MD, USA) to isolate RNA, which was analyzed by real-time quantitative polymerase chain reaction (RT-PCR). […] Emax (the maximal observed induction) and EC50 (the concentration that supports half-maximal induction) were estimated by non-linear regression of fold increase in CYP mRNA expression versus concentration plots.
(§2) The fold of vehicle control and the percent of positive control were calculated with the formulas below:
(§3) Fold of vehicle control = CYPs activity of test compound (or positive control) treated sample / CYPs activity of vehicle control treated sample
(§4) % of positive control = [(fold change in treated sample)-1] / [(fold change in positive control)-1] × 100
(§5) Based on the enzyme activity, a minimum of 2-fold increase compared to vehicle control for the positive control and ≥40% of the positive control for the test article was considered as the cutoff for a positive signal in in vitro induction assay.

CYP2C9 = assay: CYP induction in human hepatocytes, CYP2C9 enzyme activity
Description: as §1, §2, §3, §4, §5

CYP2B6 mRNA = assay: CYP induction in human hepatocytes, CYP2B6 mRNA (RT-PCR)
Description: as §1, §4
Based on the gene expression, a minimum of 4-fold increase of positive control compared to vehicle control, a minimum of 2-fold increase of the test article compared vehicle control and increased in a concentration-dependent manner was considered as the cutoff for a positive signal in in vitro induction assay.

MATE1 = target: T2, MATE1 (Homo sapiens, UniProt Q96FL8); assay: MATE1 inhibition, tetraethylammonium uptake in transfected HEK293 cells
T2 sequence (Q96FL8 1-570): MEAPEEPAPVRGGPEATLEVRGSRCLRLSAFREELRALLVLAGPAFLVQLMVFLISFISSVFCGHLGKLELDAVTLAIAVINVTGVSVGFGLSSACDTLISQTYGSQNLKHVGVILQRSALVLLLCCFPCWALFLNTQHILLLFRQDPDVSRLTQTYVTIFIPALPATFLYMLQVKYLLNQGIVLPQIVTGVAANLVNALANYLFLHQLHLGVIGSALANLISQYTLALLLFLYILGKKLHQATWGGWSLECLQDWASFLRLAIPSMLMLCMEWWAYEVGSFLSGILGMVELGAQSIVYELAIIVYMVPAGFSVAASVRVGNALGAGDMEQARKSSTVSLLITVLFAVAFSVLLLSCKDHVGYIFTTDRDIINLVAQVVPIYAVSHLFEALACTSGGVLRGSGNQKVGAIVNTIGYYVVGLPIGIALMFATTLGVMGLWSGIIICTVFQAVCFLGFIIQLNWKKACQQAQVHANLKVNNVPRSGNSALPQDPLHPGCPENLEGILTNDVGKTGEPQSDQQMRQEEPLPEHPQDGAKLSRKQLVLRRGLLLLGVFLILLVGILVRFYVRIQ
Description: The pre-incubation solutions were removed, and incubation solutions containing the inhibitors and probe substrates (or transport buffer containing an equal volume of vehicle control and probe substrates) were added and incubated at 37°C for 2 min (5 min for OATP1B3). The probe substrate for OAT1 was 4-aminohippuric acid (10 μM), for OAT3 was estrone 3-sulfate (10 μM), for OCT2 was metformin (100 μM), for OATP1B1 was β-estradiol 17-(β-D-glucuronide) (5 μM), for OATP1B3 was β-estradiol 17-(β-D-glucuronide) (10 μM), and for MATE1 and MATE2-K was tetraethylammonium (10 μM). After incubation, cells were washed three times with ice-cold transport buffer (25 mM HEPES, pH 7.4, pH 8.0 for overexpressing MATE1 and MATE2-K HEK293 cells) and lysed in distilled water. The concentrations of probe substrates were determined by LC-MS/MS, and a BCA Kit (Solarbio ®Life Sciences, Beijing, China) was used to determine the protein content in the cell lysate.
where C is the concentration of the drug in the cell lysate (nM), P is the protein concentration of the cell lysate (mg/mL), and T is the incubation time (minute). Uptake ratetest compound is the uptake rate of the substrate in the presence of the test compound. Uptake ratevehicle control is the uptake rate of the substrate in the presence of the vehicle control. Uptake ratepassive is the uptake rate of the substrate in the presence of the positive inhibitor at the top test concentration.

T1 sequence (P10635 whole entry): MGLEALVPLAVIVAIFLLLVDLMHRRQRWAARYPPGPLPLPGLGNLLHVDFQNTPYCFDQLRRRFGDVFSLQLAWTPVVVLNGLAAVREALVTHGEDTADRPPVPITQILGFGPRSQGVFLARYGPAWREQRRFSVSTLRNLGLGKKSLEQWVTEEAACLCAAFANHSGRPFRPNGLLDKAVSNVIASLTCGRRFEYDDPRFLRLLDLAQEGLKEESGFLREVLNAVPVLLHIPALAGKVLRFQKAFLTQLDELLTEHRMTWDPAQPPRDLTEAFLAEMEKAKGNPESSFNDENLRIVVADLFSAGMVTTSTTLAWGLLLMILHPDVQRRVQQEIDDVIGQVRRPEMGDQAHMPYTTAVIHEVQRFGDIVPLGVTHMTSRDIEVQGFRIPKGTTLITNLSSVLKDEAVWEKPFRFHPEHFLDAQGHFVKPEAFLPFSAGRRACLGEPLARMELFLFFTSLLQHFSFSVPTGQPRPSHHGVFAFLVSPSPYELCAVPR

SMILES: C[C@H](Nc1ncnc(N)c1C#N)c1cc2ncc(Cl)n2nc1-c1ccccc1 [Amdizalisib]
- activity loss of CYP2D6 (CYP2D6): less than 10%
- Enzyme activity Percent of PC (%) (CYP2C8; CYP 2C8, donor one, 3 µM): 10.8%
- Enzyme activity Percent of PC (%) (CYP2C8; female, human, 48 h, 0.3 µM): 5.21%
- Enzyme activity Percent of PC (%) (CYP2C8; female, human, 48 h, 20 µM): -19.4%
- Enzyme activity Percent of PC (%) (CYP2C9; CYP2C9, donor eight, 20 µM): 14.5%
- Enzyme activity Percent of PC (%) (CYP2C9; female, human, 48 h, 0.3 µM): 5.63%
- Enzyme activity Percent of PC (%) (CYP2C9; female, human, 48 h, 3 µM): 30.0%
- Enzyme activity Percent of PC (%) (CYP2C9; female, human, 48 h, 20 µM): 38.1%
- Enzyme activity Percent of PC (%) (CYP2C9; male, human, 48 h, 20 µM): 36.5%
- R3 value (CYP2B6 induction, basic kinetic model) (CYP2B6 mRNA): ≤ 0.8
- induction on CYP2B6 mRNA expression (CYP2B6 mRNA; 20 uM): >2-fold induction on CYP1A2, 2B6, 3A4, 2C9 mRNA expression at 20 uM
- Gene expression Percent of PC (%) (CYP2B6 mRNA; CYP2B6, donor seven, 1 µM): 9.50%
- Gene expression Percent of PC (%) (CYP2B6 mRNA; CYP2B6, donor seven, 3 µM): 1.70%
- Gene expression Percent of PC (%) (CYP2B6 mRNA; CYP2B6, donor seven, 10 µM): 60.8%
- Gene expression Percent of PC (%) (CYP2B6 mRNA; CYP2B6, donor seven, 20 µM): 22.4%
- Gene expression Percent of PC (%) (CYP2B6 mRNA; CYP2B6, donor seven, 30 µM): 43.7%
- Gene expression Percent of PC (%) (CYP2B6 mRNA; CYP2B6, donor six, 1 µM): 2.50%
- Gene expression Percent of PC (%) (CYP2B6 mRNA; CYP2B6, donor six, 3 µM): 5.50%
- Gene expression Percent of PC (%) (CYP2B6 mRNA; CYP2B6, donor six, 10 µM): 34.3%
- Gene expression Percent of PC (%) (CYP2B6 mRNA; CYP2B6, donor six, 20 µM): 36.8%
- Gene expression Percent of PC (%) (CYP2B6 mRNA; CYP2B6, donor six, 30 µM): 25.2%
- Gene expression Percent of PC (%) (CYP2B6 mRNA; CYP2B6, donor two, 1 µM): 5.40%
- Gene expression Percent of PC (%) (CYP2B6 mRNA; CYP2B6, donor two, 3 µM): 2.30%
- Gene expression Percent of PC (%) (CYP2B6 mRNA; CYP2B6, donor two, 10 µM): 29.6%
- Gene expression Percent of PC (%) (CYP2B6 mRNA; CYP2B6, donor two, 20 µM): 18.1%
- Gene expression Percent of PC (%) (CYP2B6 mRNA; CYP2B6, donor two, 30 µM): 39.0%
- Emax, CYP2B6 expression (CYP2B6 mRNA; donor seven): 5.42 fold
- Emax, CYP2B6 expression (CYP2B6 mRNA; donor six): 7.94 fold
- Emax, CYP2B6 expression (CYP2B6 mRNA; donor two): 3.39 fold
- IC50 (MATE1): 16.2 µM
- calculated R value (MATE-1) (MATE1): < 1.1
- Percentage transported (MATE1; MATE1, compound 0.3 μM): 98.0%
- Uptake rate (MATE1; MATE1, compound 0.3 μM): 244±23.4 pmol/mg protein/min
- Percentage transported (MATE1; MATE1, compound 1 μM): 86.1%
- Uptake rate (MATE1; MATE1, compound 1 μM): 216±1.37 pmol/mg protein/min
- Percentage transported (MATE1; MATE1, compound 3 μM): 73.2%
- Uptake rate (MATE1; MATE1, compound 3 μM): 186±12.4 pmol/mg protein/min
- Percentage transported (MATE1; MATE1, compound 10 μM): 49.2%
- Uptake rate (MATE1; MATE1, compound 10 μM): 129±1.08 pmol/mg protein/min
- Percentage transported (MATE1; MATE1, compound 30 μM): 47.8%
- Uptake rate (MATE1; MATE1, compound 30 μM): 126±22.8 pmol/mg protein/min
- Percentage transported (MATE1; MATE1, compound 100 μM): 23.6%
- Uptake rate (MATE1; MATE1, compound 100 μM): 68.4±2.28 pmol/mg protein/min
- inhibition at 2 min, 0.3 µM (MATE1; human, pH 8): 2.01%
- inhibition at 2 min, 1 µM (MATE1; human, pH 8): 13.9%
- inhibition at 2 min, 3 µM (MATE1; human, pH 8): 26.8%
- inhibition at 2 min, 10 µM (MATE1; human, pH 8): 50.8%
- inhibition at 2 min, 30 µM (MATE1; human, pH 8): 52.2%
- inhibition at 2 min, 100 µM (MATE1; human, pH 8): 76.4%

From publication PMC11211886 (Frontiers in Pharmacology, 2024)
